Laboratory results published in publication PMC7447632, “Highly functionalized β-lactams and 2-ketopiperazines as TRPM8 antagonists with antiallodynic activity” (Scientific Reports, 2020).

Columns and labels:
Type in all cases: cell-based
60 tumor cell screen = 60 tumor cell screen at the National Cancer Institute; conditions: 10 µM concentration
Excerpt: A number of recent experimental evidences position TRPM channels as important players in cancer growth and progression. Among these channels, the aberrant expression of the TRPM8 subtype has been described in different human malignant tumors, including those of prostate, pancreas, breast, colon, and skin, among others. More importantly, sometimes the TRPM8 overexpression was associated to poor prognosis of cancer patients. […] Based on these precedents, in this work we first aimed at evaluating the antitumor activity of enantiopure compounds 24a and 29a. Initially, we assessed the growth inhibition percentage by a 10 µM concentration of these compounds on a 60 tumor cell screen at the National Cancer Institute (USA).

rat TRPM8 channel = biological target: T1, rat TRPM8 channel (Rattus norvegicus, UniProt Q8R455); assay: Ca2+ microfluorometry, menthol-induced Ca2+ influx in HEK293 cells expressing rat TRPM8; conditions: 100 µM menthol, HEK-rTRPM8; for % Blockade 5 µM: 5 µM compound; for % Blockade 50 µM: 50 µM compound; for IC50: Ca2+ microfluorometry
T1 construct: expressed in transfected cells; host or cells: HEK293 (stably transfected)
Protocol: The ability to inhibit menthol-induced Ca^2+ intracellular influx into the cytosol on HEK293 cells heterologously expressing the rat TRPM8 channel was measured and compared to that of AMTB, a well-known TRPM8 antagonist. Representative recordings of fluorescence obtained in microfluorometry experiments for selected compounds are in Supplementary Fig. S3.
Human embryonic kidney cell line (HEK) stably transfected with rTRPM8 or h-TRPV1 were used as previously described. Briefly, cells were seeded in 96-well plates at a cell density of 30,000 cells 2 days before treatment. Buffer used was HBBS (in mM): 138 NaCl, 5.33 KCl, 1.26 CaCl2, 0.5 MgCl-6H2O, 0.4 MgSO4-7H2O, 4 NaHCO3 0.44 KH2PO4, 0.3 Na2HPO4, pH 7.4. The day of treatment the medium was replaced with 100 µL of the dye loading solution Fluo-4 NW supplemented with probenecid 2.5 mM. After incubation, plates were transferred to a fluorescence plate reader (Polastar BMG). In the experimental protocol, the baseline fluorescence was recorded ([…]) for 3 cycles. After, vehicle, compound at different concentrations and the corresponding antagonist, 10 µM AMTB for TRPM8 or 10 µM Ruthenium Red for TRPV1 were added to the well. Fluorescence intensity was recorded during 7 cycles more. Finally, the agonist 100 µM menthol for TRPM8 or 1 µM capsaicin for TRPV1 was added and fluorescence intensity was recorded during 10 cycles more.
The degree of inhibition of TRPM8 channel gating was calculated by comparison to calcium increase signal elicited by test substances and menthol at 100 µM. Decrease of menthol signal was expressed as percentage of inhibition (%). All data are expressed as mean ± standard deviation (SD). Each condition was assessed by triplicate (n = 3) in 3 independent experiments (N = 3). Z-factor was calculated in each assay using the following equation: […]. In all the experiments Z-factor was ≥ 0.5. To calculate IC50, normalized responses (%) versus log [µM] were adjusted to a non-linear fit with variable slope, a four-parameter dose–response curve following curve Y = 100/(1 + 10^((Log IC50-X)*HillSlope)) where […].

[1] = system: PSN1 (pancreas adenocarcinoma); assay: SRB cytotoxicity assay, PSN1; conditions: 72 h, SRB; for TGI PSN1: total growth inhibition; for TGI PSN1 / CC50: unit inferred; for GI50 / CC50: Homo sapiens, PSN1; for CC50: read-out: LC50 PSN1
Protocol: Human tumor cell lines used in this study were purchased from the ATCC. A-549 (CCL-185), lung carcinoma; HT-29 (HTB-38), colorectal adenocarcinoma; MDA-MB-231 (HTB-26), breast adenocarcinoma; PSN1, pancreas adenocarcinoma.
All cell lines were maintained in DMEM (Dulbecco’s Modified Eagle's Medium) culture medium supplemented with 10% FBS (Fetal Bovine Serum), 100 Units/mL penicillin/streptomycin at 37 °C, 5% CO2 and 95% humidity.
Triplicate cultures were incubated for 72 h in the presence or absence of test compounds in dose–response curves (10 concentrations, typically ranging from 10 to 0.0026 µg/mL). A colorimetric assay using sulforhodamine B (SRB) was adapted for quantitative measurement of cell growth and cytotoxicity. A more detailed information on this assay is provides in the supplementary information. GI50 is the compound concentration that produces 50% inhibition on cell growth as compared to control cells.
In vitro bioassays for the detection of antitumor activity
The aim of this assay is to evaluate the in vitro cytostatic (ability to delay or arrest tumor cell growth) or cytotoxic (ability to kill tumor cells) activity of the samples […]
Name Nº ATCC Species Tissue Characteristics
A549 CCL-185 human lung lung carcinoma (NSCLC)
HT29 HTB-38 human colon colorectal adenocarcinoma
MDA-MB-231 HTB-26 human breast breast adenocarcinoma
PSN1 CRM-CRL-3211 human pancreas pancreas adenocarcinoma […]
A colorimetric assay, using Sulforhodamine B (SRB) reaction has been adapted to provide a quantitative measurement of cell growth and viability (following the technique described by Skehan et al. J. Natl. Cancer Inst. 1990, 82, 1107-1112 […]
This form of assay employs 96-well cell culture microplates following the standards of the American National Standards Institute and the Society for Laboratory […]
used in this study were obtained from the American Type Culture Collection (ATCC) and derive from different types of human cancer.
A549, HT29, MDA-MB-231 and PSN1 cells were maintained in Dulbecco’s
Modified Eagle Medium (DMEM) supplemented with 10% Fetal Bovine Serum (FBS), 2mM L-glutamine, 100 U/mL penicillin, and 100 U/mL streptomycin at 37 °C, 5% CO2 and 98% humidity. For the experiments, cells were harvested from subconfluent cultures using trypsinization and resuspended in fresh medium before counting and […]
A549, HT29, MDA-MB-231 and PSN1 cells were seeded in 96 well microtiter plates, at 5000 cells per well in aliquots of 150 µL, and allowed to attach to the plate surface for 18 hours (overnight) in drug free medium. After that, one control (untreated) plate of each cell line was fixed (as described below) and used for time zero reference value. Culture plates were then treated with test compounds (50 µL aliquots of 4X stock […]
solutions in complete culture medium plus 4% DMSO) using ten 2/5 serial dilutions (concentrations ranging from 10 to 0.003 µg/mL) and triplicate cultures (1% final concentration in DMSO). After 72 hours treatment, the antitumor effect was measured by using the SRB methodology: Briefly, cells were washed twice with PBS, fixed for 15 min in 1% glutaraldehyde solution at room temperature, rinsed twice in PBS, and stained in 0.4% SRB solution for 30 min at room temperature. Cells were then rinsed several times with 1% acetic acid solution and air-dried at room temperature. SRB was then extracted in 10 mM trizma base solution and the absorbance measured in an automated spectrophotometric plate reader at 490 nm.
Effects on cell growth and survival were estimated by applying the NCI algorithm (Boyd MR and Paull KD. Drug Dev. Res. 1995, 34, 91-109, DOI:10.1002/ddr.430340203). The values obtained in triplicate cultures were fitted by nonlinear regression to a four-parameters logistic curve by nonlinear regression analysis. . Using the absorbance measurements [time zero, (Tz), control growth, (C), and test growth in the presence of drug at the ten concentration levels (Ti)], the […]

T1 sequence (Q8R455 whole entry): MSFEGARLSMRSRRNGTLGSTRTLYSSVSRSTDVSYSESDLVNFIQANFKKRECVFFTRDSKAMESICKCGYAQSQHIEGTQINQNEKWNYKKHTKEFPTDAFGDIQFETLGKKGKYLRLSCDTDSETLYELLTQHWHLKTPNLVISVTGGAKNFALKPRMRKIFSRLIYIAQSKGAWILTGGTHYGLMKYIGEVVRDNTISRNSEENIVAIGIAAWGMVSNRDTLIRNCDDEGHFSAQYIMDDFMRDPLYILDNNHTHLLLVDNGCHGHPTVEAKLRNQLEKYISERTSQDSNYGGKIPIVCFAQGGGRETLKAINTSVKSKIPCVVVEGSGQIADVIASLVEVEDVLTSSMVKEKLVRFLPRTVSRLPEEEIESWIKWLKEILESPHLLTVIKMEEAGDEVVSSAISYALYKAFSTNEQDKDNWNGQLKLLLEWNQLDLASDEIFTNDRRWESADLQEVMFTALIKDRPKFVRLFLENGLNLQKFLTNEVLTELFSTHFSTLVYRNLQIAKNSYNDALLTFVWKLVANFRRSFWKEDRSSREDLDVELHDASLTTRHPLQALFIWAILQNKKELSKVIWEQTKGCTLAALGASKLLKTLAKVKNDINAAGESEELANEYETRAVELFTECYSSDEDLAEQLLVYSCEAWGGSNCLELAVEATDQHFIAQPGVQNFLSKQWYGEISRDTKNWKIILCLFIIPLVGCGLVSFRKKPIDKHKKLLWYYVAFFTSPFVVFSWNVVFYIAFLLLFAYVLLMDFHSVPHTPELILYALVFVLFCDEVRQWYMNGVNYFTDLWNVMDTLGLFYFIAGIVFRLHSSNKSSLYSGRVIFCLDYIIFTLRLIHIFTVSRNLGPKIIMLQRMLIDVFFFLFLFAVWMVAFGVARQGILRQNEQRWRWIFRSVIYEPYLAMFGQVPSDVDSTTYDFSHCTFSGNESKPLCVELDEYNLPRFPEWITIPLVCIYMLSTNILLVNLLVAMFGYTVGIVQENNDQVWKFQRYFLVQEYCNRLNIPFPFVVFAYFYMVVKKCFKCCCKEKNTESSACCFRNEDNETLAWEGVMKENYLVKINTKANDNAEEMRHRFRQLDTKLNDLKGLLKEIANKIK

## C[C@@H]1C(=O)N(C[C@H](Cc2ccccc2)NC(=O)OCc2ccccc2)[C@]1(Cc1ccccc1)C(=O)OCc1ccccc1 [Compound 24a, 4S-Benzyl-4-benzyloxycarbonyl-3S-methyl-1-[(2′S-benzyloxycarbonylamino-3′-phenyl)prop-1′-yl]-2-oxoazetidine]
60 tumor cell screen
  Growth inhibition in 60 tumor cell screen: non-selective, modest cytotoxic effects
Rat TRPM8 channel
  % Blockade 5 µM: 65.4 ± 6.4%
  % Blockade 50 µM: 110.7 ± 11.7%
  IC50: 2.4 ± 1.2 µM
[1]
  TGI PSN1: > 17.3 µM
  GI50: 5.55 µM
  CC50: > 17.3 µM

## C[C@@H]1C(=O)N(C[C@@H](Cc2ccccc2)NC(=O)OCc2ccccc2)[C@]1(Cc1ccccc1)C(=O)OCc1ccccc1 [Compound 29a, 4S-Benzyl-4-benzyloxycarbonyl-3S-methyl-1-[(2′R-benzyloxycarbonylamino-3′-phenyl)prop-1′-yl]-2-oxoazetidine]
60 tumor cell screen
  Growth inhibition in 60 tumor cell screen: non-selective, modest cytotoxic effects
Rat TRPM8 channel
  % Blockade 5 µM: 97.2 ± 4.8%
  % Blockade 50 µM: 100.0 ± 5.0%
  IC50: 0.4 µM
[1]
  TGI PSN1: > 17.3 µM
  GI50: 6.42 µM
  CC50: > 17.3 µM
